Test results published in patent publication US20230075856A1, “CYCLIC SULFAMIDE COMPOUNDS FOR TREATMENT OF HBV” (Assembly Biosciences, Inc., priority 2018, published 2023).

System: HBV viral load production from HepAD38 cells
Test: Viral production from HepAD38 cells: viral load in supernatant by qPCR of the HBV core sequence
Type: cell-based
Settings: 5 days incubation, qPCR of supernatant HBV DNA vs DMSO control, read-out: viral load lowering EC50 (Activity)
Outline: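 HepAD38 cells seeded at 50,000/well in tetracycline-free medium with 2% FBS, treated with compounds (final top concentration 10 μM) for 5 days at 37 °C. Supernatant HBV DNA quantified by TaqMan qPCR of core sequence against HBV DNA standards, relative to DMSO controls; EC50 by four-parameter logistic fit.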

“N3-(3-chloro-4-fluoro-phenyl)-2-methyl-1,1-(trifluoromethyl)phenyl]ethyl]-1,2,6-thiadiazinane-3,5-dicarboxamide [493-S-ISOMER-B]” and “N3-(3-chloro-4-fluoro-phenyl)-2-methyl-1,1-dioxo-N5-[(5-phenylisoxazol-3-yl)methyl]- [1149-ISOMER-B]” fall in the same range of EC50: 100 to 10000 nM for the first, 100 to 10000 nM for the second.

“N3-(3-chloro-4-fluoro-phenyl)-N5-[(S)-(2-chlorothiazol-5-yl)-phenyl-methyl]-2-methyl-1,1-dioxo-1,2,6-thiadiazinane-3,5- [1066-ISOMER-B]” gave an EC50 of less than 50 nM.

Same assay, conditions: Hepatitis B virus, HePAD38, 120 h, 5 days incubation, qPCR of supernatant HBV DNA vs DMSO control, read-out: viral load lowering EC50 (Activity)

Cc1nc(CNC(=O)C2CC(C(=O)Nc3ccc(F)c(Cl)c3)N(C)S(=O)(=O)N2)sc1-c1ccccc1Cl (stereo not drawn) [Compound 1071] and Cc1nc(CNC(=O)C2CC(C(=O)Nc3ccc(F)c(Cl)c3)N(C)S(=O)(=O)N2)sc1-c1ccccc1F (stereo not drawn) [Compound 1085] cannot be ordered by EC50: less than 50 nM for the first, less than 50 nM for the second.

CN1C(C(=O)Nc2ccc(F)c(Cl)c2)CC(C(=O)NCc2nn(-c3ccccc3)c3ccccc23)NS1(=O)=O (stereo not drawn) [Compound 1072] and CN1C(C(=O)Nc2ccc(F)c(Cl)c2)CC(C(=O)NCc2nn(-c3ccccc3Cl)c3ccccc23)NS1(=O)=O (stereo not drawn) [Compound 1073] cannot be ordered by EC50: less than 50 nM for the first, less than 50 nM for the second.

Cc1cccnc1N1CCC(NC(=O)C2CC(C(=O)Nc3ccc(F)c(Cl)c3)N(C)S(=O)(=O)N2)CC1 (stereo not drawn) [Compound 1074] and CN1C(C(=O)Nc2ccc(F)c(Cl)c2)CC(C(=O)NC2CCN(c3ccnc(C#N)c3)CC2)NS1(=O)=O (stereo not drawn) [Compound 1089] cannot be ordered by EC50: less than 50 nM for the first, less than 50 nM for the second.

First: CN1C(C(=O)Nc2ccc(F)c(Cl)c2)CC(C(=O)NC2CCN(C(=O)OC(C)(C)C)C2)NS1(=O)=O (stereo not drawn) [Compound 1081]
Second: Cc1sc(N2CCC(NC(=O)C3CC(C(=O)Nc4ccc(F)c(Cl)c4)N(C)S(=O)(=O)N3)CC2)nc1C(=O)N(C)C (stereo not drawn) [Compound 1093]
The EC50 of the first is higher: 100 to 10000 nM for the first, less than 50 nM for the second. The second is the more potent here.

CN1C(C(=O)Nc2ccc(F)c(Cl)c2)CC(C(=O)NCc2sc(-c3ccccc3F)nc2C(F)(F)F)NS1(=O)=O (stereo not drawn) [Compound 1082] and Cc1nc(-c2ccc(F)cc2F)sc1CNC(=O)C1CC(C(=O)Nc2ccc(F)c(Cl)c2)N(C)S(=O)(=O)N1 (stereo not drawn) [Compound 1083] cannot be ordered by EC50: less than 50 nM for the first, less than 50 nM for the second.

First: CN1C(C(=O)Nc2ccc(F)c(Cl)c2)CC(C(=O)NC(c2ccccc2)c2cnc(-c3ccccc3F)s2)NS1(=O)=O (stereo not drawn) [Compound 1084]
Second: Cc1nc(-c2ccccc2F)sc1C(NC(=O)C1CC(C(=O)Nc2ccc(F)c(Cl)c2)N(C)S(=O)(=O)N1)c1ccccc1 (stereo not drawn) [Compound 1101]
The EC50 of the first is lower: less than 50 nM for the first, 50 to 100 nM for the second.

CN1C(C(=O)Nc2ccc(F)c(Cl)c2)CC(C(=O)NCc2nn(-c3ccccc3F)c3ccccc23)NS1(=O)=O (stereo not drawn) [Compound 1086] and Cc1cn(-c2ccccc2F)nc1CNC(=O)C1CC(C(=O)Nc2ccc(F)c(Cl)c2)N(C)S(=O)(=O)N1 (stereo not drawn) [Compound 1142] cannot be ordered by EC50: less than 50 nM for the first, less than 50 nM for the second.

Cc1nc(-c2ccc(OCCN3CCCCC3)cc2)sc1CNC(=O)C1CC(C(=O)Nc2ccc(F)c(Cl)c2)N(C)S(=O)(=O)N1 (stereo not drawn) [Compound 1087] and CN1C(C(=O)Nc2ccc(F)c(Cl)c2)CC(C(=O)NCc2cc(-c3ccc(F)cc3)n(C)n2)NS1(=O)=O (stereo not drawn) [Compound 1151] cannot be ordered by EC50: less than 50 nM for the first, less than 50 nM for the second.

First: Cc1nc(Cl)sc1C(NC(=O)C1CC(C(=O)Nc2ccc(F)c(Cl)c2)N(C)S(=O)(=O)N1)c1ccccc1 (stereo not drawn) [Compound 1098]
Second: Cc1nc(-c2ccccc2Cl)sc1C(NC(=O)C1CC(C(=O)Nc2ccc(F)c(Cl)c2)N(C)S(=O)(=O)N1)c1ccccc1 (stereo not drawn) [Compound 1100]
The EC50 of the first is lower: less than 50 nM for the first, 50 to 100 nM for the second. The first is the more potent here.

Compared with Cc1nc(-c2ccccc2)sc1C(NC(=O)C1CC(C(=O)Nc2ccc(F)c(Cl)c2)N(C)S(=O)(=O)N1)c1ccccc1 (stereo not drawn) [Compound 1099], Cc1nc(-c2ccccc2)sc1CNC(=O)C1CC(C(=O)Nc2ccc(F)c(C#N)c2)N(C)S(=O)(=O)N1 (stereo not drawn) [Compound 1136] is lower in EC50: 50 to 100 nM for the first, less than 50 nM for the second. The second is the more potent here.

First: Cc1cnn(-c2ccccc2)c1CNC(=O)C1CC(C(=O)Nc2ccc(F)c(Cl)c2)N(C)S(=O)(=O)N1 (stereo not drawn) [Compound 1104]
Second: Cc1c(CNC(=O)C2CC(C(=O)Nc3ccc(F)c(Cl)c3)N(C)S(=O)(=O)N2)nnn1-c1ccccc1 (stereo not drawn) [Compound 1148]
The EC50 of the first is lower: less than 50 nM for the first, 100 to 10000 nM for the second. The first is the more potent here.

First: CN1C(C(=O)Nc2ccc(F)c(Cl)c2)CC(C(=O)Nc2cn(-c3ccccc3)cn2)NS1(=O)=O (stereo not drawn) [Compound 1116]
Second: CN1C(C(=O)Nc2ccc(F)c(Cl)c2)CC(C(=O)NCc2cn(-c3ccccc3)cn2)NS1(=O)=O (stereo not drawn) [Compound 1145]
The EC50 of the first is higher: 50 to 100 nM for the first, less than 50 nM for the second.

First: CN1C(C(=O)Nc2ccc(F)c(Cl)c2)CC(C(=O)NCc2cnc(N)s2)NS1(=O)=O (stereo not drawn) [Compound 1132]
Second: CN1C(C(=O)Nc2ccc(F)c(Cl)c2)CC(C(=O)NCc2cnc(Cl)s2)NS1(=O)=O (stereo not drawn) [Compound 1199]
The EC50 of the first is higher: 100 to 10000 nM for the first, less than 50 nM for the second.

Cc1cn(-c2ccccc2)nc1CNC(=O)C1CC(C(=O)Nc2ccc(F)c(C#N)c2)N(C)S(=O)(=O)N1 (stereo not drawn) [Compound 1134] and Cc1cn(-c2ccccc2)nc1CNC(=O)C1CC(C(=O)Nc2ccnc(Cl)c2)N(C)S(=O)(=O)N1 (stereo not drawn) [Compound 1135] cannot be ordered by EC50: less than 50 nM for the first, less than 50 nM for the second.

Cc1nc(-c2ccccc2)sc1CNC(=O)C1CC(C(=O)Nc2ccnc(Cl)c2)N(C)S(=O)(=O)N1 (stereo not drawn) [Compound 1137] and Cc1c(CNC(=O)C2CC(C(=O)Nc3ccc(F)c(Cl)c3)N(C)S(=O)(=O)N2)noc1-c1ccccc1 (stereo not drawn) [Compound 1150] cannot be ordered by EC50: less than 50 nM for the first, less than 50 nM for the second.

Cc1cn(-c2ccc(F)cc2)nc1CNC(=O)C1CC(C(=O)Nc2ccc(F)c(Cl)c2)N(C)S(=O)(=O)N1 (stereo not drawn) [Compound 1141] and Cc1cn(-c2ccc(F)cc2F)nc1CNC(=O)C1CC(C(=O)Nc2ccc(F)c(Cl)c2)N(C)S(=O)(=O)N1 (stereo not drawn) [Compound 1144] cannot be ordered by EC50: less than 50 nM for the first, less than 50 nM for the second.

CN1C(C(=O)Nc2ccc(F)c(Cl)c2)CC(C(=O)NCc2cc(-c3ccc(F)cc3)nn2C)NS1(=O)=O (stereo not drawn) [Compound 1143] and CN1C(C(=O)Nc2ccc(F)c(Cl)c2)CC(C(=O)NCc2ncc(-c3ccc(F)cc3)s2)NS1(=O)=O (stereo not drawn) [Compound 1153] cannot be ordered by EC50: less than 50 nM for the first, less than 50 nM for the second.

First: CN1C(C(=O)Nc2ccc(F)c(Cl)c2)CC(C(=O)NCc2cn(-c3ccccc3)nn2)NS1(=O)=O (stereo not drawn) [Compound 1147]
Second: CN1C(C(=O)Nc2ccc(F)c(Cl)c2)CC(C(=O)NCc2cc(-c3ccccc3)on2)NS1(=O)=O (stereo not drawn) [Compound 1149]
The EC50 of the first is higher: 50 to 100 nM for the first, less than 50 nM for the second.

First: CN1C(C(=O)Nc2ccc(F)c(Cl)c2)CC(C(=O)NCc2cnc(-n3cccn3)s2)NS1(=O)=O (stereo not drawn) [Compound 1157]
Second: CN1C(C(=O)Nc2ccc(F)c(Cl)c2)CC(C(=O)NCc2cnc(-n3ccnn3)s2)NS1(=O)=O (stereo not drawn) [Compound 1158]
The EC50 of the first is higher: 50 to 100 nM for the first, less than 50 nM for the second. The second is the more potent here.

CN1C(C(=O)Nc2ccc(F)c(Cl)c2)CC(C(=O)NCc2cnc(C3CCC(C)(C)C3)s2)NS1(=O)=O (stereo not drawn) [Compound 1159] and CN1C(C(=O)Nc2ccc(F)c(Cl)c2)CC(C(=O)NCc2cnc(C3=CCC(C)(C)C3)s2)NS1(=O)=O (stereo not drawn) [Compound 1205] fall in the same range of EC50: 100 to 10000 nM for the first, 100 to 10000 nM for the second.

CN1C(C(=O)Nc2ccc(F)c(Cl)c2)CC(C(=O)NCC2CCCCC2)NS1(=O)=O (stereo not drawn) [Compound 1160] and CN1C(C(=O)Nc2ccc(F)c(Cl)c2)CC(C(=O)NCCC2CCCO2)NS1(=O)=O (stereo not drawn) [Compound 1161] fall in the same range of EC50: 100 to 10000 nM for the first, 100 to 10000 nM for the second.

First: CN1C(C(=O)Nc2ccc(F)c(Cl)c2)CC(C(=O)NCc2cnc(-c3ccccn3)s2)NS1(=O)=O (stereo not drawn) [Compound 1162]
Second: CN(C)CCCCc1cnn(-c2ncc(CNC(=O)C3CC(C(=O)Nc4ccc(F)c(Cl)c4)N(C)S(=O)(=O)N3)s2)c1 (stereo not drawn) [Compound 1197]
The EC50 of the first is lower: less than 50 nM for the first, 100 to 10000 nM for the second.

In the case of CN1C(C(=O)Nc2ccc(F)c(Cl)c2)CC(C(=O)NCc2nc(C(F)(F)F)cs2)NS1(=O)=O (stereo not drawn) [Compound 1202], the EC50 is reported as 100 to 10000 nM.
